From US20220002279A1, “NOVEL IMIDAZOLE DERIVATIVE” (priority 2018, published 2022)
Values after ≈ are worked out from the molar mass of the structure shown. Like-named read-outs stand apart in the source and are kept apart here.

How the values were obtained:
[1] = test system: Pseudomonas aeruginosa strain ATCC27853; experiment: Antimicrobial activity, MIC by broth microdilution; assay type: cell-based; conditions: ATCC27853, 18 h, cation-adjusted Mueller-Hinton broth, about 5×10^5 CFU/mL, 35° C., about 18 hours, read-out: MIC Pseudomonas aeruginosa ATCC27853
Source text: (§1) Test Example 4 Evaluation of the Antimicrobial Activity
(§2) For minimum inhibitory concentration (MIC) measurement, the following broth microdilution method was applied as adapted from the standard procedure recommended by the CLSI (Clinical and Laboratory Standards Institute).
(§3) The bacteria used were Pseudomonas aeruginosa strain ATCC27853, Escherichia coli strain ATCC25922, and Klebsiella pneumoniae strain ATCC13883. After culture overnight on a heart infusion agar medium, the cells of a test bacterium were scraped off, and a bacterial solution suspended to have a turbidity of level 0.5 on the McFarland scale was diluted and used as an inoculum solution. The inoculum solution was inoculated in a cation-adjusted Mueller-Hinton broth medium containing a test compound so that the final inoculation concentration was about 5×10^5 CFU/mL, and cultured at 35° C. for about 18 hours. A minimum drug concentration at which no cell growth was visible to the naked eye was designated as MIC. […] In the table, ND represents the case where suppression of the cell growth in a drug concentration-dependent manner was not observed (Not Determined), and NT represents that no test was conducted (Not Tested).

[2] = test system: Klebsiella pneumoniae strain ATCC13883; experiment: Antimicrobial activity, MIC by broth microdilution; assay type: cell-based; conditions: ATCC13883, cation-adjusted Mueller-Hinton broth, about 5×10^5 CFU/mL, 35° C., about 18 hours, read-out: MIC Klebsiella pneumoniae ATCC13883
Source text: as §1, §2, §3

[3] = test system: Escherichia coli strain ATCC25922; experiment: Antimicrobial activity, MIC by broth microdilution; assay type: cell-based; conditions: ATCC25922, 18 h, cation-adjusted Mueller-Hinton broth, about 5×10^5 CFU/mL, 35° C., about 18 hours, read-out: MIC Escherichia coli ATCC25922
Source text: as §1, §2, §3

[4] = biological target: T1, Escherichia coli LpxC enzyme (Escherichia coli, UniProt P0A725); experiment: Inhibitory activity on Escherichia coli LpxC enzyme (fluorescamine method); assay type: biochemical
T1 construct: made in house; host or cells: Escherichia coli
T1 sequence (P0A725 1-305): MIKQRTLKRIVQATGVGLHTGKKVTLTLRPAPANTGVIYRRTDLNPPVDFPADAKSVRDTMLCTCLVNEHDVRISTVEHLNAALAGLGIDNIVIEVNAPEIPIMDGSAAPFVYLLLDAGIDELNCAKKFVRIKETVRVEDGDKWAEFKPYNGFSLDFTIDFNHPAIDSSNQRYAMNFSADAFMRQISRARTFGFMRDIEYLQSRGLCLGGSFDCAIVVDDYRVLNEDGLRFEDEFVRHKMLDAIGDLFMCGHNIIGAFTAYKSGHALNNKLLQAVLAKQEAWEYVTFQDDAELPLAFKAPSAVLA
Description: To assay the activity of Escherichia coli LpxC enzyme, LpxC was reacted with its substrate, UDP-3-O-(R-3-hydroxymyristoyl)-N-acetylglucosamine, and the amount of the reaction product was quantified by the amino groups present in the product
The reaction was terminated by the addition of 1.0 mg/mL-fluorescamine dissolved in a solvent obtained by mixing an equal amount of acetonitrile and dimethylformamide with the reaction mixture, and then, a 0.2 mol/L-sodium phosphate buffer solution (pH 8.0) was added thereto, and the amount of the reaction product was detected at an excitation wavelength/fluorescence wavelength=390 nm/495 nm. An inhibition curve was obtained by performing the aforementioned reaction in the presence of various concentrations of test compounds.

[5] = fluorescamine detection, 3.1 nmol/L enzyme, 20 μmol/L substrate, pH 6.5, 120 min, read-out: IC50 (inhibitory activity on Escherichia coli LpxC enzyme, Fluoresamine method)

Row | Compound | MIC [1] | MIC [2] | MIC [3] | IC50 [4, 5] | IC50 [4]
1 | COCC1CC1C#Cc1ccc(-c2cc([C@@H](CN)n3ccnc3[C@H](C)O)no2)cc1 (relative stereo) [Compound 74, (1S)-1-(1-{(1R)-2-amino-1-[5-(4-{[trans-2-(methoxymethyl)cyclopropyl]ethynyl}phenyl)-1,2-oxazol-3-yl]ethyl}-1H-imidazol-2-yl)ethan-1-ol] | 16 µg/mL (≈ 39.4 µM) | 0.25 µg/mL (≈ 0.615 µM) | 0.12 µg/mL (≈ 0.295 µM) | 39.6 nM | –
2 | C[C@H](O)c1nccn1[C@H](CN)c1cc(-c2ccc(C#CC3CC3CO)cc2)on1 (relative stereo) [Compound 80, (1S)-1-(1-((1R)-2-amino-1-[5-(4-{[trans-2-(hydroxymethyl)cyclopropyl]ethynyl}phenyl)-1,2-oxazol-3-yl]ethyl}-1H-imidazol-2-yl)ethan-1-ol] | 4 µg/mL (≈ 10.2 µM) | 1 µg/mL (≈ 2.55 µM) | 0.25 µg/mL (≈ 0.637 µM) | 80.7 nM | –
3 | COCC1CC1C#Cc1ccc(-c2cc(Cn3ccnc3[C@H](C)O)no2)cc1 (stereo in doubt) [Compound 66, (1S)-1-(1-{[5-(4-{[trans-2-(Methoxymethyl)cyclopropyl]ethynyl}phenyl)-1,2-oxazol-3-yl]methyl}-1H-imidazol-2-yl)ethan-1-ol] | 32 µg/mL (≈ 84.8 µM) | 0.12 µg/mL (≈ 0.318 µM) | 0.12 µg/mL (≈ 0.318 µM) | – | < 10 nM
4 | C[C@H](O)c1nccn1Cc1cc(-c2ccc(C#CC3CC3)cc2)on1 [Compound 26, (1S)-1-[1-({5-[4-(Cyclopropylethynyl)phenyl]-1,2-oxazol-3-yl}methyl)-1H-imidazol-2-yl]ethan-1-ol] | > 8 µg/mL | 0.25 µg/mL (≈ 0.75 µM) | 0.25 µg/mL (≈ 0.75 µM) | – | < 10 nM
5 | C[C@H](O)c1nccn1Cc1cc(-c2ccc(C#CC3CCOCC3)cc2)on1 [Compound 31, (1S)-1-{1-[(5-{4-[(oxan-4-yl)ethynyl]phenyl}-1,2-oxazol-3-yl)methyl]-1H-imidazol-2-yl) ethan-1-ol] | > 128 µg/mL | 2 µg/mL (≈ 5.3 µM) | 1 µg/mL (≈ 2.65 µM) | 32.8 nM | –
6 | C[C@H](O)c1nccn1Cc1cc(-c2ccc(C#CC(C)(C)O)cc2)on1 [Compound 32, 4-(4-[3-({2-[(1S)-1-hydroxyethyl]-1H-imidazol-1-yl}methyl)-1,2-oxazol-5-yl]phenyl}-2-methylbut-3-yn-2-ol] | > 128 µg/mL | 16 µg/mL (≈ 45.5 µM) | 8 µg/mL (≈ 22.8 µM) | 335 nM | –
7 | C[C@H](O)c1nccn1Cc1cc(-c2ccc(C#C[C@@H]3[C@H]4CN(CC(=O)O)C[C@@H]34)cc2)on1 [Compound 110, [(1R,5S,6s)-6-({4-[3-((2-[(1S)-1-hydroxyethyl]-1H-imidazol-1-yl}methyl)-1,2-oxazol-5-yl]phenyl}ethynyl)-3-azabicyclo[3.1.0]hexan-3-yl]acetic acid] | – | – | – | 219 nM | –
8 | C[C@H](O)c1nccn1Cc1cc(-c2ccc(C#C[C@@H]3[C@H]4CN(CCC(=O)O)C[C@@H]34)cc2)on1 [Compound 114, 3-[(1R,5S,6s)-6-({4-[3-({2-[(1S)-1-hydroxyethyl]-1H-imidazol-1-yl}methyl)-1,2-oxazol-5-yl]phenyl}ethynyl)-3-azabicyclo[3.1.0]hexan-3-yl]propanoic acid] | 4 µg/mL (≈ 8.96 µM) | 4 µg/mL (≈ 8.96 µM) | – | 291 nM | –
9 | CC(O)CN1C[C@@H]2[C@@H](C#Cc3ccc(-c4cc([C@@H](CN)n5ccnc5[C@H](C)O)no4)cc3)[C@@H]2C1 (stereo partly drawn) [Compound 120, 1-{(1R,5S,6s)-6-[(4-{3-[(1R)-2-amino-1-{2-[(1S)-1-hydroxyethyl]-1H-imidazol-1-yl}ethyl]-1,2-oxazol-5-yl}phenyl)ethynyl]-3-azabicyclo[3.1.0]hexan-3-yl}propan-2-ol] | 2 µg/mL (≈ 4.33 µM) | 2 µg/mL (≈ 4.33 µM) | 1 µg/mL (≈ 2.17 µM) | – | –
10 | C[C@H](O)c1nccn1[C@H](CN)c1cc(-c2ccc(C#C[C@H]3C[C@H](N(C)C=O)C3)cc2)on1 [Compound 123, N-{trans-3-[(4-{3-[(1R)-2-amino-1-{2-[(1S)-1-hydroxyethyl]-1H-imidazol-1-yl}ethyl]-1,2-oxazol-5-yl}phenyl)ethynyl]cyclobutyl}-N-methylformamide] | 32 µg/mL (≈ 73.8 µM) | 2 µg/mL (≈ 4.61 µM) | 4 µg/mL (≈ 9.23 µM) | – | –
11 | C[C@H](O)c1nccn1[C@H](CN)c1cc(-c2ccc(C#C[C@@H]3[C@H]4CN(C(=O)C(N)=O)C[C@@H]34)cc2)on1 [Compound 124, 2-{(1R,5S,6s)-6-[(4-{3-[(1R)-2-amino-1-{2-[(1S)-1-hydroxyethyl]-1H-imidazol-1-yl}ethyl]-1,2-oxazol-5-yl}phenyl)ethynyl]-3-azabicyclo[3.1.0]hexan-3-yl}-2-oxoacetamide] | 2 µg/mL (≈ 4.21 µM) | 4 µg/mL (≈ 8.43 µM) | 2 µg/mL (≈ 4.21 µM) | – | –
12 | C[C@H](O)c1nccn1[C@H](CN)c1cc(-c2ccc(C#C[C@H]3C[C@@H](O)C3)cc2)on1 [Compound 125, cis-3-[(4-{3-[(1R)-2-amino-1-{2-[(1S)-1-hydroxyethyl]-1H-imidazol-1-yl}ethyl]-1,2-oxazol-5-yl}phenyl)ethynyl]cyclobutan-1-ol] | 8 µg/mL (≈ 20.4 µM) | 2 µg/mL (≈ 5.1 µM) | 2 µg/mL (≈ 5.1 µM) | – | –
13 | C[C@H](O)c1nccn1[C@H](CN)c1cc(-c2ccc(C#C[C@H]3CC3C(=O)O)cc2)on1 (stereo partly drawn) [Compound 126, trans-2-[(4-{3-[(1R)-2-amino-1-{2-[(1S)-1-hydroxyethyl]-1H-imidazol-1-yl}ethyl]-1,2-oxazol-5-yl}phenyl)ethynyl]cyclopropane-1-carboxylate] | 16 µg/mL (≈ 39.4 µM) | 64 µg/mL (≈ 157 µM) | 16 µg/mL (≈ 39.4 µM) | – | –
14 | C[C@H](O)c1nccn1[C@H](CN)c1cc(-c2ccc(C#CC3CC(NC4CC4)C3)cc2)on1 (stereo partly drawn) [Compound 129, (1S)-1-(1-{(1R)-2-amino-1-[5-(4-{[3-(cyclopropylamino)cyclobutyl]ethynyl}phenyl)-1,2-oxazol-3-yl]ethyl}-1H-imidazol-2-yl)ethan-1-ol] | 8 µg/mL (≈ 18.5 µM) | 2 µg/mL (≈ 4.63 µM) | 1 µg/mL (≈ 2.32 µM) | – | –
15 | C[C@H](O)c1nccn1[C@H](CN)c1cc(-c2ccc(C#CC3CC3(CO)CO)cc2)on1 (stereo partly drawn) [Compound 131, (1S)-1-(1-{(1R)-2-amino-1-[5-(4-{[2,2-bis(hydroxymethyl)cyclopropyl]ethynyl}phenyl)-1,2-oxazol-3-yl]ethyl}-1H-imidazol-2-yl)ethan-1-ol] | 16 µg/mL (≈ 37.9 µM) | 32 µg/mL (≈ 75.7 µM) | 8 µg/mL (≈ 18.9 µM) | – | –
16 | C[C@H](O)c1nccn1[C@H](CN)c1cc(-c2ccc(C#C[C@@H]3[C@H]4CN(CCCO)C[C@@H]34)cc2)on1 [Compound 132, 3-{(1R,5S,6s)-6-[(4-{3-[(1R)-2-amino-1-{2-[(1S)-1-hydroxyethyl]-1H-imidazol-1-yl}ethyl]-1,2-oxazol-5-yl}phenyl)ethynyl]-3-azabicyclo[3.1.0]hexan-3-yl) propan-1-ol] | 2 µg/mL (≈ 4.33 µM) | 8 µg/mL (≈ 17.3 µM) | 8 µg/mL (≈ 17.3 µM) | – | –
17 | C[C@H](O)c1nccn1[C@H](CN)c1cc(-c2ccc(C#C[C@H]3C[C@H](NC4COC4)C3)cc2)on1 [Compound 133, (1S)-1-{1-[(1R)-2-amino-1-{5-[4-({trans-3-[(oxetan-3-yl)amino]cyclobutyl}ethynyl)phenyl]-1,2-oxazol-3-yl}ethyl]-1H-imidazol-2-yl} ethan-1-ol] | 8 µg/mL (≈ 17.9 µM) | 4 µg/mL (≈ 8.94 µM) | 1 µg/mL (≈ 2.23 µM) | – | –
18 | C[C@H](O)c1nccn1Cc1cc(-c2ccc(C#C[C@H]3C[C@H](NC4COC4)C3)cc2)on1 [Compound 135, (S)-1-(1-((5-(4-(((1r,3S)-3-(oxetan-3-ylamino)cyclobutyl)ethynyl)phenyl)isoxazol-3-yl)methyl)-1H-imidazol-2-yl)ethanol] | 32 µg/mL (≈ 76.5 µM) | 2 µg/mL (≈ 4.78 µM) | 0.5 µg/mL (≈ 1.19 µM) | – | –
19 | C[C@H](O)CN1C[C@@H]2[C@@H](C#Cc3ccc(-c4cc([C@@H](CN)n5ccnc5[C@H](C)O)no4)cc3)[C@@H]2C1 [Compound 136, (S)-1-((1R,5S,6R)-6-((4-(3-((R)-2-amino-1-(2-((S)-1-hydroxyethyl)-1H-imidazol-1-yl)ethyl)isoxazol-5-yl)phenyl)ethynyl)-3-azabicyclo[3.1.0]hexan-3-yl)propan-2-ol] | 2 µg/mL (≈ 4.33 µM) | 4 µg/mL (≈ 8.67 µM) | 1 µg/mL (≈ 2.17 µM) | – | –
